# Results taken from US8716256B2, “Method of therapy and diagnosis of atherosclerosis” (Kaoshiung Medical University, priority 2011, dated 2014).
# How the values were obtained:
# Format in all cases: cell-based, human
# LOX-1 = LOX-1 expression in HASMC by real time PCR and western blot; conditions: for oxLDL-induced LOX-1 expression (mRNA): HASMC treated with oxLDL plus suppressor, FIGS. 19, 22, 26; for protein levels of LOX-1 (western blot): HASMC with suppressor, with or without oxLDL, FIGS. 20, 23, 28
# Description: With reference to FIG. 2, there center on the expression of oxLDL and LOX-1 in human aortic smooth muscle cells. In the present embodiment, a primary human aortic smooth muscle cells (HASMC) cell line purchased from Cascade Biologics (OR, USA) is prepared and treated with various levels of oxLDL. More specifically, the HASMC cell line is incubated in a commercial smooth muscle cell growth supplement (SMGS) medium (Cascade Biologics, OR, USA) at 37° C. in a humidified atmosphere of 95% air and 5% CO2.
# In the present embodiment, the HASMC cell line is grown in a 6-well plate till at a density of 2×10^5 cell/well, and then randomly assigned into four groups. The four groups of HASMC are co-cultured with 0, 20, 40, and 60 μg/ml of oxLDL individually for 24 hours, followed by analyzing the gene expression of HASMC via real time polymerase chain reaction (PCR) and western blot. Total RNA samples of the four groups of HASMC are prepared by using a Trizol® reagent (Invitrogen, CA, USA), and further quantitatively confirmed by a spectrophotometer at A260/A280 readings. Then, cDNA samples of the four groups of HASMC are synthesized by using a random primer and a MultiScribe™ Reverse Transcriptase Kit (Applied Biosystems Inc, CA, USA). The cDNA samples of the four groups of HASMC are sequentially diluted in 2×SYBR Green PCR Master Mix (Applied Biosystems Inc, CA, USA) to carry out quantitative real time PCR analysis. In the present invention, a primer pair of LOX-1 is designed and used in the real time PCR analysis, wherein the primer pair of LOX-1 is set forth in SEQ ID NO. 3 and 4.
# On the other hand, protein samples of the four groups of HASMC are prepared by harvesting the four groups of HASMC in RIPA buffer (Invitrogen, CA, USA) firstly and centrifuged at 4° C. 1,2000 rpm to obtain supernatants as total cell lysate of the four groups of HASMC. In the present embodiment, the four groups of protein lysate are denatured in a mixture of 2% SDS, 10 mM dithiothreitol, 60 mM Tris-HCl (pH6.8) and 0.1% bromphenol blue, and then analyzed by polyacrylamide/SDS gel. Data obtained from the polyacrylamide/SDS gel analysis are further transferred to PVDF membrane for western blot assay.
# In FIG. 9, the expression of LOX-1 in HASMC under various levels of let-7g is monitored and reordered. […]
# (§1) In the present embodiment, the HASMCs are randomly assigned into four groups, including groups (O1), as a control; (O2), with treatment of oxLDL; (O3), with co-transfection of the OCT-1 shRNA; and (O4), with co-transfection of the OCT-1 shRNA and treatment of oxLDL, wherein total RNA samples and protein sample of those groups are extracted and analyzed by the real time PCR and the western blot of the present invention. […]
# let-7g = let-7g expression in HASMC by northern blot and real time PCR; conditions: HASMC treated with oxLDL plus suppressor; FIGS. 18, 21, 25
# Description: In FIGS. 7 and 8, there is the relationship between oxLDL and let-7g in the HASMC. In the present embodiment, the HASMC are treated with various levels of oxLDL, for example 0, 20, 40 and 60 μg/ml, in order to monitor and to recorder the effect of oxLDL on let-7g. Similarly, the HASMC cell is grown in a 6-well plate till at a density of 2×10^5 cell/well, and then randomly assigned into plural groups with the treatment of 0, 20, 40 and 60 μg/ml oxLDL individually for 24 hours. Finally, total RNA samples of each group of HASMC are analyzed by northern blot and quantified real time PCR via above protocols. In the present embodiment, a primer pair of let-7g as set forth in SEQ ID NO: 7 and 8 is used in the teal time PCR analysis according to the same PCR program described above. Also, the northern blot of the present invention is determined by using a miRNA northern blot assay kit (Applied Biosystems, CA, USA). […]
# as §1
# OCT-1 = OCT-1 expression in HASMC by real time PCR and western blot; conditions: for protein levels of OCT-1 (western blot): HASMC with suppressor, with or without oxLDL, FIGS. 23, 28
# Description: The following trials stress on the mechanism between let-7g, LOX-1, oxLDL and OCT-1. In FIG. 17, the expression of OCT-1 under various levels of oxLDL is shown. In the present embodiment, […], and then total RNA samples and protein samples of the HASMC are prepared and analyzed by the real time PCR and western blot assay of the present invention. Precisely, the preparation of the total RNA samples and the protein samples of the HASMC, also the PCR program and western blot assay are performed according to the above protocols. Moreover, a primer pair of OCT-1 set forth in SEQ ID NO. 19 and 20 is designed and used in real time PCR analysis, and a commercial OCT-1 antibody (Sigma-Aldrich Inc, MO, USA) is used in western blot assay.
# In the present embodiment, primer pairs set forth in SEQ ID NO. 3, 4, 7, 8, 19, 20, the LOX-1 antibody, and the OCT-1 antibody are used respectively in PCR or western blot assay.
# With reference to FIG. […] More specifically, […], such as 0, 25, 50, and 75 μg/ml, […] 2000, […] by real time PCR and western blot according to the protocols described above. Moreover, primer pairs set forth in SEQ ID NO. 19 and 20, and the OCT-1 antibody are used respectively in PCR or western blot analysis.
# 3'UTR region of LOX-1 = assay: LOX-1 3'UTR luciferase reporter assay in CRL-1999 cells; conditions: groups U1 to U7, FIG. 12
# Text: Referring to FIGS. 10 and 11, the relationship between oxLDL, LOX-1 and let-7g is further identified. In the present invention, the 3′UTR region of LOX-1 is cloned into a commercial vector, preferably downstream of a reporter gene, such as a luciferase gene, for the sake of studying the effect of oxLDL and let-7g on LOX-1 by estimating the activity of the reporter gene. In the present embodiment, a pMIR-LOX-1-3UTR vector is obtained by PCR amplifying the 3′UTR region of LOX-1 in the chromosome DNA of HASMC with a primer pair set forth in SEQ ID NO. 9 and 10; and cloning the amplified 3′UTR region of LOX-1 into a pMIR-REpORT luciferase vector (Ambion Inc, TX, USA). Furthermore, the pMIR-LOX-1-3UTR vector of the present embodiment is transfected into a human smooth muscle cell line CRL-1999 purchased from ATCC (Manassas, Va., USA) by using lipofectamine 2000 (Invitrogen Inc, CA, USA). In the present embodiment, the CRL-1999 cell line of the present embodiment is incubated in F12K Kaighn's modification medium (GIBCO-BRL, MD, USA) with various levels of oxLDL and let-7g mimic, followed by analyzed the activity of luciferase by a Luciferase Assay System (Promega, WI, USA). […]
Compound,oxLDL-induced LOX-1 expression (mRNA) (LOX-1),protein levels of LOX-1 (western blot) (LOX-1),oxLDL-mediated inhibition on let-7g (relative let-7g levels) (let-7g),"oxLDL-induced OCT-1 expression (mRNA) (OCT-1; HASMC treated with oxLDL plus MAPTAM, FIG. 27)",protein levels of OCT-1 (western blot) (OCT-1),"luciferase activity, pMIR-LOX-1-3UTR versus pMIR-LOX-1 mutant 3'UTR (3'UTR region of LOX-1)"
CC(=O)OCOC(=O)CN(CC(=O)OCOC(C)=O)c1ccc(C)cc1OCCOc1cc(C)ccc1N(CC(=O)OCOC(C)=O)CC(=O)OCOC(C)=O [MAPTAM],decreased,significant decrease,decreased,decreased,significant decrease,–
COc1ccc2c(c[n+](C)c3c4cc5c(cc4ccc23)OCO5)c1OC [chelerythrine],inhibited,significant decrease,inhibited,–,significant decrease,–
"let-7g: mature form of microRNA-let-7g, as set forth in SEQ ID NO. 2 (UGAGGUAGUAGUUUGUACAGUU; listed as RNA, chemistry not given here; listed as Homo sapiens)",–,–,–,–,–,targets to the 3′UTR region of LOX-1 to suppress the expression of LOX-1
